pIC50: −log10 of the molar value.
Key:
[1] = Inhibition of Bordetella pertussis Adenylate cyclase toxin in mouse J774.A1 cells preincubated for 5 hrs followed by ACT addition and measured after 30 mins by CatchPointcAMP immunoassay method; format: cell-based
[2] = target: T1, Calmodulin-sensitive adenylate cyclase (Bacillus anthracis, UniProt P40136); experiment: Inhibition of Bacillus anthracis Edema factor
T1 sequence (P40136 whole entry): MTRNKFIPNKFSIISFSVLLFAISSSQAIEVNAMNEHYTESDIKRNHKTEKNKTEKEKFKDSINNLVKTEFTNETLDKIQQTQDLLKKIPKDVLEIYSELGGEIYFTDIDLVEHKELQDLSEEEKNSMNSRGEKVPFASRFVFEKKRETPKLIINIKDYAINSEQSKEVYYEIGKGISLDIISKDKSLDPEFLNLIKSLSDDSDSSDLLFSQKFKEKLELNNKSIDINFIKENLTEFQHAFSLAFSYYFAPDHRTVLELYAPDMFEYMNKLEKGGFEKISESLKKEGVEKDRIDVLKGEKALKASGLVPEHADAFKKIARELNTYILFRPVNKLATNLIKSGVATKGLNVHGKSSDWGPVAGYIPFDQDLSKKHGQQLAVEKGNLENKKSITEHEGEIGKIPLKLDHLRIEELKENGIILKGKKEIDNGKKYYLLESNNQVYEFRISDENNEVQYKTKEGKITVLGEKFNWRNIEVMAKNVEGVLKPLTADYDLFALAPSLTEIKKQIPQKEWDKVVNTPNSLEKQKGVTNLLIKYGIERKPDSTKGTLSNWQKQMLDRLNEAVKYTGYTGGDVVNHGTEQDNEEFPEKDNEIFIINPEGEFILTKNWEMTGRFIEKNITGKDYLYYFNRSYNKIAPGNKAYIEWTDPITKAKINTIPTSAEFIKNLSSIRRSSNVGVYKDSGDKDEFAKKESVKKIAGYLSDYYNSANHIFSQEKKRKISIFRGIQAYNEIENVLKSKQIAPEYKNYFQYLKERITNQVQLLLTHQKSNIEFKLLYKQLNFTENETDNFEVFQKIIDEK

HepG2 = experiment: Cytotoxicity against human HepG2 cells by CellTiter-Glo 2.0 assay; format: functional, cell-based
[3] = Cytotoxicity against mouse J774.A1 cells assessed as cell viability at 10 uM incubated for 5 hrs by Cell Titer-Glo Luminescent Cell Viability assay relative to control; format: toxicity, cell-based; details: read-out: Activity
NHDF = experiment: Cytotoxicity against human NHDF cells by CellTiter-Glo 2.0 assay; format: toxicity, cell-based
HL-60 = experiment: Cytotoxicity against human HL-60 cells by CellTiter-Glo 2.0 assay; format: functional, cell-based
HeLa S3 = experiment: Cytotoxicity against human HeLa S3 cells by CellTiter-Glo 2.0 assay; format: functional, cell-based
CCRF-CEM = experiment: Cytotoxicity against human CCRF-CEM cells by CellTiter-Glo 2.0 assay; format: functional, cell-based
HEK293 = experiment: Cytotoxicity against AC1 expressed HEK293 cells by CellTiter-Glo 2.0 assay relative to control; format: toxicity, cell-based; set-up: concentration or dose not given beside the values; details: human

SMILES | pIC50 [1] | pIC50 [2] | pIC50 (HepG2) | viability at 5 h, 10 µM [3] [%] | pIC50 (NHDF) | pIC50 (HL-60) | pIC50 (HeLa S3) | pIC50 (CCRF-CEM) | Activity (HEK293) [%]
Nc1ncnc2c1c(-c1ccccn1)cn2CCOCP(=O)(O)OP(=O)(O)OP(=O)(O)O | 6.97 | 7.29 | – | – | – | – | – | – | –
CC(C)OC(=O)[C@H](Cc1ccccc1)NP(=O)(COCCn1cc(-c2cccs2)c2c(N)ncnc21)N[C@@H](Cc1ccccc1)C(=O)OC(C)C | – | – | 5.99 | 36 | 6.40 | 6.25 | 5.96 | 6.10 | -9
COc1ccc(-c2cn(CCOCP(=O)(O)OP(=O)(O)OP(=O)(O)O)c3ncnc(N)c23)cc1 | 6.73 | 7.05 | – | – | – | – | – | – | –
CC(C)OC(=O)[C@H](Cc1ccccc1)NP(=O)(COCCn1cc(-c2cccc(C(=O)O)c2)c2c(N)ncnc21)N[C@@H](Cc1ccccc1)C(=O)OC(C)C | 5.22 | – | < 5.00 | 104 | < 5.00 | < 5.00 | < 5.00 | < 5.00 | 115
CC(C)OC(=O)[C@H](Cc1ccccc1)NP(=O)(COCCn1cc(-c2cccc(S(N)(=O)=O)c2)c2c(N)ncnc21)N[C@@H](Cc1ccccc1)C(=O)OC(C)C | 5.47 | – | < 5.00 | 114 | < 5.00 | 5.32 | < 5.00 | 5.25 | 110
CCc1cn(CCOCP(=O)(N[C@@H](Cc2ccccc2)C(=O)OC(C)C)N[C@@H](Cc2ccccc2)C(=O)OC(C)C)c2ncnc(N)c12 | < 5.00 | – | < 5.00 | 125 | < 5.00 | 5.10 | < 5.00 | < 5.00 | 90
CC(C)OC(=O)[C@H](Cc1ccccc1)NP(=O)(COCCn1cc(-c2ccco2)c2c(N)ncnc21)N[C@@H](Cc1ccccc1)C(=O)OC(C)C | – | – | 6.00 | 43 | 6.46 | 6.18 | 5.89 | 6.00 | -9
CC(C)OC(=O)[C@H](Cc1ccccc1)NP(=O)(COCCn1cc(-c2cncnc2)c2c(N)ncnc21)N[C@@H](Cc1ccccc1)C(=O)OC(C)C | < 5.00 | – | < 5.00 | 128 | < 5.00 | < 5.00 | < 5.00 | < 5.00 | 102
COc1ccc(-c2cn(CCOCP(=O)(OCOC(=O)C(C)(C)C)OCOC(=O)C(C)(C)C)c3ncnc(N)c23)cc1 | 4.99 | – | < 5.00 | 85 | < 5.00 | < 5.00 | < 5.00 | < 5.00 | –
CC(C)OC(=O)[C@H](Cc1ccccc1)NP(=O)(COCCn1cc(-c2cccc(NS(C)(=O)=O)c2)c2c(N)ncnc21)N[C@@H](Cc1ccccc1)C(=O)OC(C)C | 5.53 | – | < 5.00 | 87 | < 5.00 | 5.15 | 4.82 | 5.16 | 98
COc1cccc(-c2cn(CCOCP(=O)(N[C@@H](Cc3ccccc3)C(=O)OC(C)C)N[C@@H](Cc3ccccc3)C(=O)OC(C)C)c3ncnc(N)c23)c1 | 5.32 | – | 4.86 | 94 | < 5.00 | 5.26 | 5.04 | 5.31 | -14
COc1ccccc1-c1cn(CCOCP(=O)(N[C@@H](Cc2ccccc2)C(=O)OC(C)C)N[C@@H](Cc2ccccc2)C(=O)OC(C)C)c2ncnc(N)c12 | 5.66 | – | 5.34 | 112 | < 5.00 | 5.18 | 5.44 | 5.21 | -12
C#Cc1cn(CCOCP(=O)(N[C@@H](Cc2ccccc2)C(=O)OC(C)C)N[C@@H](Cc2ccccc2)C(=O)OC(C)C)c2ncnc(N)c12 | < 5.00 | – | 5.10 | 129 | < 5.00 | 5.19 | < 5.00 | 5.24 | 85
Nc1ncnc2c1ncn2CCOCP(=O)(O)OP(=O)(O)OP(=O)(O)O [ADEFOVIR DIPHOSPHATE] | – | 7.87 | – | – | – | – | – | – | –
